{"source": "patent US20140343001A1", "about": "“INDOLE DERIVATIVES INHIBITORS OF ENZYME LACTATE DEHYDROGENASE (LDH)” (Universitá di Pisa, priority 2011, published 2014)", "target": "T1, hLDH5 (LDH-A) (Homo sapiens, UniProt P00338)", "T1 construct": "purchased LEEBIO (USA)", "assay": "Enzyme inhibition of human lactate dehydrogenase isoform 5", "format": "biochemical", "settings": "ranges of values, pH 7.4; for Ki: 37° C., read-out: inhibitory activity against hLDH5 (Ki); for IC50: room temperature, read-out: inhibitory activity against hLDH5 (IC50)", "description": "The compounds described in the examples were evaluated in enzymatic assays to assess its inhibitory properties against two human isoforms of lactate dehydrogenase, hLDH5 containing solely the subunit LDH-A (LEEBIO—USA), and the hLDH1 containing only the LDH subunits-B (Sigma Aldrich, USA), in order to verify the selectivity of these compounds.\n(for Ki measurements). Such assays were conducted in cells containing 200 μL of a solution comprising the reagents dissolved in phosphate buffer (KH2PO4 and K2HPO4) at pH 7.4.\nIC50 values were calculated as described below. […] Seven different concentrations (in duplicate for each concentration) of compound were used to generate a concentration-response curve. […] Compound solutions were dispensed in 96-well plates (8 μL), then substrate and cofactor dissolved in buffer (152 μl) and enzyme solution (40 μl) were finally added. Dilution of the enzyme stock solution was made to allow a 10% consumption of the cofactor after 15 min. The eventual background fluorescence of the tested compounds or quenching of the NADH fluorescence by the tested compounds was subtracted. In addition to the compound test wells, each plate contained maximum and minimum controls. Assay plates were incubated at room temperature for 15 min and the final measurements were performed using Victor X3 Microplates reader (PerkinElmer®) at a fluorescence emission wavelength of 460 nm (excitation at 340 nm). IC50 were generated using the curve-fitting tool of GraphPad Prism].\nThe resulting data of enzymatic kinetic (the constants of Michaelis-Menten) were determined by analysis of non-linear regression."}
{"smiles": "O=C(O)c1cc2c(C(F)(F)F)cc(-c3ccccc3)cc2n1O[C@@H]1O[C@H](CO)[C@@H](O)[C@H](O)[C@H]1O", "note": "[Example 2, 6-phenyl-1-(β-D-glucopyranosyl)oxy-4-(trifluoromethyl)-1H-indole-2-carboxylic acid]", "values": [{"measurement": "Ki", "value": "10 to 100", "unit": "µM"}]}
{"smiles": "COC(=O)c1cc2c(C(F)(F)F)cc(-c3ccccc3)cc2n1O[C@@H]1O[C@H](COC(C)=O)[C@@H](OC(C)=O)[C@H](OC(C)=O)[C@H]1OC(C)=O", "note": "[Example 5, methyl 6-phenyl-1-(β-d-2,3,4,6-tetra-O-acetylglucopyranosyl)oxy-4-(trifluoromethyl)-1H-indole-2-carboxylate]", "values": [{"measurement": "IC50", "value": "50 to 500", "unit": "µM"}]}
{"smiles": "CCOC(=O)c1cc2c(C(F)(F)F)cc(-c3ccccc3)cc2n1O[C@@H]1O[C@H](CO)[C@@H](O)[C@H](O)[C@H]1O", "note": "[Example 6, ethyl 6-phenyl-1-(β-D-glucopyranosyl)oxy-4-(trifluoromethyl)-1H-indole-2-carboxylate]", "values": [{"measurement": "IC50", "value": "50 to 500", "unit": "µM"}]}
{"smiles": "CCOC(=O)c1cc2c(C(F)(F)F)cc(-c3ccccc3)cc2n1O[C@@H]1O[C@H](COC(C)=O)[C@@H](OC(C)=O)[C@H](OC(C)=O)[C@H]1OC(C)=O", "note": "[Example 7, ethyl 6-phenyl-1-(β-d-2,3,4,6-tetra-O-acetylglucopyranosyl)oxy-4-(trifluoromethyl)-1H-indole-2-carboxylate]", "values": [{"measurement": "IC50", "value": "> 100", "unit": "µM"}]}
{"smiles": "COC(=O)c1cc2c(C(F)(F)F)cc(-c3ccc(Cl)cc3Cl)cc2n1O[C@@H]1O[C@H](COC(C)=O)[C@@H](OC(C)=O)[C@H](OC(C)=O)[C@H]1OC(C)=O", "note": "[Example 11, methyl 6-(2,4-dichlorophenyl)-1-(β-d-2,3,4,6-tetra-O-acetylglucopyranosyl)oxy-4-(trifluoromethyl)-1H-indole-2-carboxylate]", "values": [{"measurement": "IC50", "value": "> 100", "unit": "µM"}]}
{"smiles": "CCOC(=O)c1cc2c(C(F)(F)F)cc(-c3ccc(Cl)cc3Cl)cc2n1O[C@@H]1O[C@H](CO)[C@@H](O)[C@H](O)[C@H]1O", "note": "[Example 12, ethyl 6-(2,4-dichlorophenyl)-1-(β-D-glucopyranosyl)oxy-4-(trifluoromethyl)-1H-indole-2-carboxylate]", "values": [{"measurement": "IC50", "value": "50 to 500", "unit": "µM"}]}
{"smiles": "CCOC(=O)c1cc2c(C(F)(F)F)cc(-c3ccc(Cl)cc3Cl)cc2n1O[C@@H]1O[C@H](COC(C)=O)[C@@H](OC(C)=O)[C@H](OC(C)=O)[C@H]1OC(C)=O", "note": "[Example 13, ethyl 6-(2,4-dichlorophenyl)-1-(β-d-2,3,4,6-tetra-O-acetylglucopyranosyl)oxy-4-(trifluoromethyl)-1H-indole-2-carboxylate]", "values": [{"measurement": "IC50", "value": "> 100", "unit": "µM"}]}
{"smiles": "COC(=O)c1cc2c(C(F)(F)F)cc(-c3ccccc3)c(-c3ccccc3)c2n1O", "note": "[Example 14, methyl 1-hydroxy-6,7-diphenyl-4-(trifluoromethyl)-1H-indole-2-carboxylate]", "values": [{"measurement": "IC50", "value": "1 to 10", "unit": "µM"}]}
{"smiles": "COC(=O)c1c(C)c2c(C(F)(F)F)cc(-c3ccccc3)cc2n1O", "note": "[Example 16, methyl 1-hydroxy-6-phenyl-3-methyl-4-(trifluoromethyl)-1H-indole-2-carboxylate]", "values": [{"measurement": "IC50", "value": "1 to 10", "unit": "µM"}]}
{"smiles": "COC(=O)c1cc2c(C(F)(F)F)cc(-c3ccc(OC(F)(F)F)cc3)cc2n1O", "note": "[Example 18, methyl 1-hydroxy-4-(trifluoromethyl)-6-(4-(trifluoromethoxy)phenyl)-1H-indole-2-carboxylate]", "values": [{"measurement": "Ki", "value": "1 to 10", "unit": "µM"}]}
{"smiles": "COC(=O)c1c(C)c2c(C(F)(F)F)cc(-c3ccc(Cl)cc3Cl)cc2n1O", "note": "[Example 20, methyl 6-(2,4-dichlorophenyl)-1-hydroxy-3-methyl-4-(trifluoromethyl)-1H-indole-2-carboxylate]", "values": [{"measurement": "IC50", "value": "1 to 10", "unit": "µM"}]}
{"smiles": "COC(=O)c1cc2c(C(F)(F)F)cc(-c3ccc(Cl)c(Cl)c3)cc2n1O", "note": "[Example 21, methyl 6-(3,4-dichlorophenyl)-1-hydroxy-4-(trifluoromethyl)-1H-indole-2-carboxylate]", "values": [{"measurement": "IC50", "value": "> 100", "unit": "µM"}]}
{"smiles": "O=C(O)c1cc2c(C(F)(F)F)cc(-c3ccc(OC(F)(F)F)cc3)cc2n1O", "note": "[Example 24, 1-hydroxy-4-(trifluoromethyl)-6-(4-(trifluoromethoxy)phenyl)-1H-indole-2-carboxylic acid]", "values": [{"measurement": "Ki", "value": "0.5 to 5", "unit": "µM"}]}
{"smiles": "Cc1c(C(=O)O)n(O)c2cc(-c3ccc(Cl)cc3Cl)cc(C(F)(F)F)c12", "note": "[Example 26, 6-(2,4-dichlorophenyl)-1-hydroxy-3-methyl-4-(trifluoromethyl)-1H-indole-2-carboxylic acid]", "values": [{"measurement": "IC50", "value": "1 to 10", "unit": "µM"}]}
{"smiles": "O=C(O)c1cc2c(C(F)(F)F)cc(-c3ccc(Cl)c(Cl)c3)cc2n1O", "note": "[Example 27, 6-(3,4-dichlorophenyl)-1-hydroxy-4-(trifluoromethyl)-1H-indole-2-carboxylic acid]", "values": [{"measurement": "Ki", "value": "1 to 10", "unit": "µM"}]}
{"smiles": "CCCCOC(=O)c1cc2c(C(F)(F)F)cc(-c3ccccc3)cc2n1O[C@@H]1O[C@H](COC(C)=O)[C@@H](OC(C)=O)[C@H](OC(C)=O)[C@H]1OC(C)=O", "note": "[Example 28, butyl 6-phenyl-1-(β-D-2,3,4,6-tetra-O-acetylglucopyranosyl)oxy-4-(trifluoromethyl)-1H-indole-2-carboxylate]", "values": [{"measurement": "IC50", "value": "> 100", "unit": "µM"}]}
{"smiles": "O=C(O)c1cc2c(C(F)(F)F)cc(-c3cccc(Cl)c3Cl)cc2n1O", "note": "[Example 37, 6-(2,3-dichlorophenyl)-1-hydroxy-4-(trifluoromethyl)-1H-indole-2-carboxylic acid]", "values": [{"measurement": "Ki", "value": "1 to 10", "unit": "µM"}]}
{"smiles": "O=C(O)c1cc2c(C(F)(F)F)cc(-c3cc(Cl)ccc3Cl)cc2n1O", "note": "[Example 39, 6-(2,5-dichlorophenyl)-1-hydroxy-4-(trifluoromethyl)-1H-indole-2-carboxylic acid]", "values": [{"measurement": "Ki", "value": "5 to 25", "unit": "µM"}]}
{"smiles": "CC(=O)OC[C@H]1O[C@@H](On2c(C(=O)OC(C)C)cc3c(C(F)(F)F)cc(-c4ccc(Cl)cc4Cl)cc32)[C@H](OC(C)=O)[C@@H](OC(C)=O)[C@@H]1OC(C)=O", "note": "[Example 44, isopropyl 6-(2,4-dichlorophenyl)-1-(β-d-2,3,4,6-tetra-O-acetylglucopyranosyl)oxy-4-(trifluoromethyl)-1H-indole-2-carboxylate]", "values": [{"measurement": "IC50", "value": "> 100", "unit": "µM"}]}
{"smiles": "CC(C)OC(=O)c1cc2c(C(F)(F)F)cc(-c3ccc(Cl)cc3Cl)cc2n1O[C@@H]1O[C@H](CO)[C@@H](O)[C@H](O)[C@H]1O", "note": "[Example 45, isopropyl 6-(2,4-dichlorophenyl)-1-(β-D-glucopyranosyl)oxy-4-(trifluoromethyl)-1H-indole-2-carboxylate]", "values": [{"measurement": "IC50", "value": "> 100", "unit": "µM"}]}
{"smiles": "CCCCOC(=O)c1cc2c(C(F)(F)F)cc(-c3ccc(Cl)cc3Cl)cc2n1O[C@@H]1O[C@H](COC(C)=O)[C@@H](OC(C)=O)[C@H](OC(C)=O)[C@H]1OC(C)=O", "note": "[Example 46, butyl 6-(2,4-dichlorophenyl)-1-(β-d-2,3,4,6-tetra-O-acetylglucopyranosyl)oxy-4-(trifluoromethyl)-1H-indole-2-carboxylate]", "values": [{"measurement": "IC50", "value": "> 100", "unit": "µM"}]}
{"smiles": "CCCCOC(=O)c1cc2c(C(F)(F)F)cc(-c3ccc(Cl)cc3Cl)cc2n1O[C@@H]1O[C@H](CO)[C@@H](O)[C@H](O)[C@H]1O", "note": "[Example 47, butyl 6-(2,4-dichlorophenyl)-1-(β-D-glucopyranosyl)oxy-4-(trifluoromethyl)-1H-indole-2-carboxylate]", "values": [{"measurement": "IC50", "value": "> 100", "unit": "µM"}]}
{"smiles": "CC(C)(C)C1CCC(OC(=O)c2cc3c(C(F)(F)F)cc(-c4ccccc4)cc3n2O)CC1", "note": "(stereo not drawn) [Example 49, 4-(tert-butyl)cyclohexyl 1-hydroxy-6-phenyl-4-(trifluoromethyl)-1H-indole-2-carboxylate]", "values": [{"measurement": "IC50", "value": "0.01 to 1", "unit": "µM"}]}
{"smiles": "CC(C)(C)C1CCC(OC(=O)c2cc3c(C(F)(F)F)cc(-c4ccc(Cl)cc4Cl)cc3n2O)CC1", "note": "(stereo not drawn) [Example 50, 4-(tert-butyl)cyclohexyl 6-(2,4-dichlorophenyl)-1-hydroxy-4-(trifluoromethyl)-1H-indole-2-carboxylate]", "values": [{"measurement": "IC50", "value": "0.01 to 1", "unit": "µM"}]}
